For this test, the target named is human α2δ-1 subunit of Cav2.2 calcium channel (Homo sapiens (Human), UniProt P54289). The experiment in a line: Binding assay to human α2δ-1 subunit of Cav2.2 calcium channel ([3H]-Gabapentin). As to conditions: binding to α2δ-1, [3H]-Gabapentin; read-out: Ki (nM) α2δ-1. On the procedure: Binding Assay to Human α2δ-1 Subunit of Cav2.2 Calcium Channel.
NSB (non specific binding) was measured by adding 10 μM pregabalin. After 60 min incubation at 27° C., binding reaction was terminated by filtering through Multiscreen GF/C (Millipore) presoaked in 0.5% polyethyleneimine in Vacuum Manifold Station, followed by 3 washes with ice-cold filtration buffer containing 50 mM Tris-HCl, pH 7.4.
Filter plates were dried at 60° C. for 1 hour and 30 μl of scintillation cocktail were added to each well before radioactivity reading.

The structures appear in SMILES notation. Where only a bound is given, the exact number is not on record here.

human α2δ-1 subunit of Cav2.2 calcium channel, sequence (P54289 25-1103): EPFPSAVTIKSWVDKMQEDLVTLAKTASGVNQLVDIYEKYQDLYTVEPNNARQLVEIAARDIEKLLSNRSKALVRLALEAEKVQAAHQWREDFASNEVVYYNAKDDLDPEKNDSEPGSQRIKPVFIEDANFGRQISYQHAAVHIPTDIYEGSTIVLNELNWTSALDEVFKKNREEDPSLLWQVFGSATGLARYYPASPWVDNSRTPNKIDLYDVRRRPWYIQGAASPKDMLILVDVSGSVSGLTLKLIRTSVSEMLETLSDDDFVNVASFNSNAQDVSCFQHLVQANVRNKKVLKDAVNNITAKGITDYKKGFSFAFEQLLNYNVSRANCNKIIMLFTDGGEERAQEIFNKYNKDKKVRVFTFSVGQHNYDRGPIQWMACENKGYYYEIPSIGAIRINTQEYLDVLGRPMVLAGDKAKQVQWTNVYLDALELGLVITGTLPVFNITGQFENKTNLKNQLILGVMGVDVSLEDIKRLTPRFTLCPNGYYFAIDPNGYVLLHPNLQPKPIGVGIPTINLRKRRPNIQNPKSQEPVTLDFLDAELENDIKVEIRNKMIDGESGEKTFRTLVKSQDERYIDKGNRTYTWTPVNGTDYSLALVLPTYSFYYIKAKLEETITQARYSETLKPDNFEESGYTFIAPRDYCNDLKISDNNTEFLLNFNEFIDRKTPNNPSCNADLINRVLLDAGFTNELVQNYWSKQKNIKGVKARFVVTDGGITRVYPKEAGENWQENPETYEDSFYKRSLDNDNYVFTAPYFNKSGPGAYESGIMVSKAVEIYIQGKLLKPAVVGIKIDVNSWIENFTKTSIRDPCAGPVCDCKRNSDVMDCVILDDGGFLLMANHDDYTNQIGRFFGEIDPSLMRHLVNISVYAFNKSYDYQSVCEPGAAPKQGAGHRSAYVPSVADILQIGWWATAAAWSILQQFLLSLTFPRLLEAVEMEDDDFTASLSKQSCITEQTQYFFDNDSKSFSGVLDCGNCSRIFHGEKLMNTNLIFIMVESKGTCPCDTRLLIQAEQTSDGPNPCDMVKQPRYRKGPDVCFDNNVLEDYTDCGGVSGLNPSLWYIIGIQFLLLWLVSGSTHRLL

With `CCNc1ncc2c(n1)N(C)CCN(c1cccc(OCCCN(C)C)c1)C2=O` [Example 257, 6-(3-(3-(dimethylamino)propoxy)phenyl)-2-(ethylamino)-9-methyl-6,7,8,9-tetrahydro-5H-pyrimido[4,5-e][1,4]diazepin-5-one], the Ki lay in the range of 100 to 500 nM.

For `CCNc1ncc2c(n1)N(C)CCN(c1cccc(OC(CN)c3ccccc3)c1)C2=O` (stereo not drawn) [Example 156, 6-(3-(2-amino-1-phenylethoxy)phenyl)-2-(ethylamino)-9-methyl-6,7,8,9-tetrahydro-5H-pyrimido[4,5-e][1,4]diazepin-5-one], the inhibition constant Ki is above 3000 nM.

Turning to `CNCCC(Oc1ccc(N2CCN(C)c3ncncc3C2=O)cc1)c1ccccc1` (stereo not drawn) [Example 361, 9-methyl-6-(4-(3-(methylamino)-1-phenylpropoxy)phenyl)-6,7,8,9-tetrahydro-5H-pyrimido[4,5-e][1,4]diazepin-5-one], the Ki was above 3000 nM.

Consider `CSc1ncc2c(n1)N(C)CCN(c1cccc(-n3cc(CCN(C)C(=O)OC(C)(C)C)nn3)c1)C2=O` [Example 43, tert-butyl methyl(2-(1-(3-(9-methyl-2-(methylthio)-5-oxo-5,7,8,9-tetrahydro-6H-pyrimido[4,5-e][1,4]diazepin-6-yl)phenyl)-1H-1,2,3-triazol-4-yl)ethyl) carbamate], for which the inhibition constant Ki was above 3000 nM.

For `CCNc1ncc2c(n1)N(C)CCN(c1cccc(OC(C)CNC)c1)C2=O` (stereo not drawn) [Example 157, 2-(ethylamino)-9-methyl-6-(3-((1-(methylamino)propan-2-yl)oxy)phenyl)-6,7,8,9-tetrahydro-5H-pyrimido[4,5-e][1,4]diazepin-5-one], the Ki is 500 to 3000 nM.

As to `CCNc1ncc2c(n1)N(C)CCN(c1cccc(CN(C)C(=O)OC(C)(C)C)c1)C2=O` [Example 94, tert-butyl (3-(2-(ethylamino)-9-methyl-5-oxo-5,7,8,9-tetrahydro-6H-pyrimido[4,5-e][1,4]diazepin-6-yl)benzyl)(methyl) carbamate], the inhibition constant (Ki) is above 3000 nM.

Consider `CCNc1ncc2c(n1)N(C)CCN(c1cccc(CCN3CCC4(CC3)CN(C(C)C)C(=O)[C@@H](C)O4)c1)C2=O` [Example 276, (R)-9-(3-(2-(ethylamino)-9-methyl-5-oxo-5,7,8,9-tetrahydro-6H-pyrimido[4,5-e][1,4]diazepin-6-yl)phenethyl)-4-isopropyl-2-methyl-1-oxa-4,9-diazaspiro[5.5]undecan-3-one], for which the Ki was 100 to 500 nM.

Regarding `CCNc1ncc2c(n1)N(C)CCN(c1cccc(OCCN3CCOCC3)c1)C2=O` [Example 440, 2-(ethylamino)-9-methyl-6-(3-(2-morpholinoethoxy)phenyl)-6,7,8,9-tetrahydro-5H-pyrimido[4,5-e][1,4]diazepin-5-one], the Ki was 500 to 3000 nM.

On to `CCNc1ncc2c(n1)N(C)CCN(c1cccc(CCO)c1)C2=O` [Example 113, 2-(ethylamino)-6-(3-(2-hydroxyethyl)phenyl)-9-methyl-6,7,8,9-tetrahydro-5H-pyrimido[4,5-e][1,4]diazepin-5-one], for which the inhibitory constant (Ki) is above 3000 nM.

For `CSc1ncc2c(n1)N(C)CCN(c1cccc(CCCN(C)C(=O)OC(C)(C)C)c1)C2=O` [Example 23, tert-butyl methyl(3-(3-(9-methyl-2-(methylthio)-5-oxo-5,7,8,9-tetrahydro-6H-pyrimido[4,5-e][1,4]diazepin-6-yl)phenyl)propyl) carbamate], the Ki is above 3000 nM.

With `CCNc1ncc2c(n1)N(C)CCN(c1cccc(C3CCN(Cc4ccccc4)CC3)c1)C2=O` [Example 259, 6-(3-(1-benzylpiperidin-4-yl)phenyl)-2-(ethylamino)-9-methyl-6,7,8,9-tetrahydro-5H-pyrimido[4,5-e][1,4]diazepin-5-one], the Ki was in the range of 100 to 500 nM.

For `CCNc1ncc2c(n1)N(C)CCN(c1cccc(-n3cc(CN4CCC(c5cccc(O)c5)(N(C)C)CC4)cn3)c1)C2=O` [Example 295, 6-(3-(4-((4-(dimethylamino)-4-(3-hydroxyphenyl)piperidin-1-yl)methyl)-1H-pyrazol-1-yl)phenyl)-2-(ethylamino)-9-methyl-6,7,8,9-tetrahydro-5H-pyrimido[4,5-e] [1,4]diazepin-5-one], the inhibition constant Ki was in the range of 100 to 500 nM.

On to `CCNc1ncc2c(n1)N(C)CCN(c1cccc(OC(CCN(C)C(=O)OC(C)(C)C)c3cccs3)c1)C2=O` (stereo not drawn) [Example 80, tert-butyl (3-(3-(2-(ethylamino)-9-methyl-5-oxo-5,7,8,9-tetrahydro-6H-pyrimido[4,5-e][1,4]diazepin-6-yl)phenoxy)-3-(thiophen-2-yl)propyl)(methyl) carbamate], for which the inhibition constant (Ki) was above 3000 nM.

Consider `CCNc1ncc2c(n1)N(C)CCN(c1cccc(Cn3cc(CN(C)C(=O)OC(C)(C)C)nn3)c1)C2=O` [Example 121, tert-butyl ((1-(3-(2-(ethylamino)-9-methyl-5-oxo-5,7,8,9-tetrahydro-6H-pyrimido[4,5-e][1,4]diazepin-6-yl)benzyl)-1H-1,2,3-triazol-4-yl)methyl)(methyl) carbamate], for which the Ki is above 3000 nM.

As to `CNCC[C@H](Oc1ccc(CN2CCN(C)c3c(F)cncc3C2=O)cc1)c1cccs1` [Example 399, (S)-9-fluoro-1-methyl-4-(4-(3-(methylamino)-1-(thiophen-2-yl)propoxy)benzyl)-1,2,3,4-tetrahydro-5H-pyrido[4,3-e][1,4]diazepin-5-one], the inhibitory constant (Ki) lay within 100 to 500 nM.

With `CNCCC(Oc1ccccc1CN1CCN(C)c2nc(SC)ncc2C1=O)c1ccccc1` (stereo not drawn) [Example 370, 9-methyl-6-(2-(3-(methylamino)-1-phenylpropoxy)benzyl)-2-(methylthio)-6,7,8,9-tetrahydro-5H-pyrimido[4,5-e][1,4]diazepin-5-one], the Ki is above 3000 nM.

As for `CN(CC[C@@H](OCc1cccc(N2CCN(C)c3nc(N)ncc3C2=O)c1)c1ccccc1)C(=O)OC(C)(C)C` [Example 130, tert-butyl (R)-(3-((3-(2-amino-9-methyl-5-oxo-5,7,8,9-tetrahydro-6H-pyrimido[4,5-e][1,4]diazepin-6-yl)benzyl)oxy)-3-phenylpropyl)(methyl) carbamate], the inhibition constant (Ki) is above 3000 nM.

As to `CCNc1ncc2c(n1)N(C)CCN(c1cccc(Br)c1)C2=O` [Example 112, 6-(3-bromophenyl)-2-(ethylamino)-9-methyl-6,7,8,9-tetrahydro-5H-pyrimido[4,5-e][1,4]diazepin-5-one], the inhibition constant (Ki) is above 3000 nM.

With `CCNc1ncc2c(n1)N(C)CCN(c1cccc(C3CCNCC3)c1)C2=O` [Example 235, 2-(Ethylamino)-9-methyl-6-(3-(piperidin-4-yl)phenyl)-6,7,8,9-tetrahydro-5H-pyrimido[4,5-e][1,4]diazepin-5-one], the inhibition constant Ki fell in the range of 100 to 500 nM.

As for `CCNc1ncc2c(n1)N(C)CCN(c1cccc(COC(C)CCNC)c1)C2=O` (stereo not drawn) [Example 191, 2-(ethylamino)-9-methyl-6-(3-(((4-(methylamino)butan-2-yl)oxy)methyl)phenyl)-6,7,8,9-tetrahydro-5H-pyrimido[4,5-e][1,4]diazepin-5-one], the Ki was 500 to 3000 nM.

For the molecule `CCNc1ncc2c(n1)N(C)CCN(c1cccc(O[C@H](CCN(C)C(=O)OC(C)(C)C)c3ccccc3)c1)C2=O` [Example 70, tert-butyl (R)-(3-(3-(2-(ethylamino)-9-methyl-5-oxo-5,7,8,9-tetrahydro-6H-pyrimido[4,5-e][1,4]diazepin-6-yl)phenoxy)-3-phenylpropyl)(methyl) carbamate], the Ki was above 3000 nM.

These data come from patent publication US10590140B2, “Tetrahydropyrimidodiazepine and dihydropyridodiazepine compounds for treating pain and pain related conditions” (ESTEVE PHARMACEUTICALS, S.A., priority 2016, dated 2020).
